Results from patent US9211310B2, “Use of a Chinese medicine composition in preparing medicaments for treating secondary prevention of myocardial infarction” (TASLY PHARMACEUTICAL GROUP CO., LTD, priority 2010, dated 2015).

Tested on: patients after acute myocardial infarction
Experiment: Life quality, Seattle Angina Questionnaire (SAQ), same clinical trial
Type: in vivo, human
Details: PP
From the text: 3508 patients who were in accordance with the diagnostic standards of AMI for 28 days to 2 years and differentiated as Qi deficiency and blood stagnation syndrome by TCM were studied. 0.5 g Chinese medicine composition prepared by the method of EXAMPLE 1 (Coded as QSYQ) was administrated half an hour after meal, 3 times per day.
There were 19 questions in the Seattle angina questionnaire (SAQ), including 5 parts: physical limitation (PL), anginal stability (AS), anginal frequency (AF), treatment satisfaction (TS) and disease perception (DP). After being given necessary explanation by doctors, the questions were answered independently by patients.
They included the overall survival time, angina pectoris score, TCM symptom score and life quality score, where angina pectoris score, TCM symptom score and life quality score were evaluated at randomization, in 1st, 3rd, 6th, 9th, 12th month after treatment and 18th month after follow-up.
All evaluation results of SAQ were described during the period of observation, and Wilcoxon rank sum test was used for inter-group comparison.
The evaluation results in the SAQ were depicted in different observations, and inter-group comparison was tested by Wilcoxon Rank-sum test.

CC(=O)Oc1ccccc1C(=O)O [Control group, aspirine]
SAQ Question 1-1 Moderately limited, percent of patients (6 months after treatment): (0.28%) | SAQ Question 1-1 Not limited, number of patients (6 months after treatment): 1368 | SAQ Question 1-1 Not limited, percent of patients (6 months after treatment): (94.34%) | SAQ Question 1-1 Other reasons, number of patients (6 months after treatment): 3 | SAQ Question 1-1 Other reasons, percent of patients (6 months after treatment): (0.21%) | SAQ Question 1-1 Severely limited, number of patients (6 months after treatment): 0 | SAQ Question 1-1 Severely limited, percent of patients (6 months after treatment): (0.00%) | SAQ Question 1-1 Slightly limited, number of patients (6 months after treatment): 53 | SAQ Question 1-1 Slightly limited, percent of patients (6 months after treatment): (3.66%) | SAQ Question 1-2 Mildly limited, number of patients (6 months after treatment): 19 | SAQ Question 1-2 Mildly limited, percent of patients (6 months after treatment): (1.31%) | SAQ Question 1-2 Moderately limited, number of patients (6 months after treatment): 6 | SAQ Question 1-2 Moderately limited, percent of patients (6 months after treatment): (0.41%) | SAQ Question 1-2 Not limited, number of patients (6 months after treatment): 1352 | SAQ Question 1-2 Not limited, percent of patients (6 months after treatment): (93.24%) | SAQ Question 1-2 Other reasons, number of patients (6 months after treatment): 6 | SAQ Question 1-2 Other reasons, percent of patients (6 months after treatment): (0.41%) | SAQ Question 1-2 Severely limited, number of patients (6 months after treatment): 1 | SAQ Question 1-2 Severely limited, percent of patients (6 months after treatment): (0.07%) | SAQ Question 1-2 Slightly limited, number of patients (6 months after treatment): 66 | SAQ Question 1-2 Slightly limited, percent of patients (6 months after treatment): (4.55%) | SAQ Question 1-6: Mildly limited, patients (%) (6 months after treatment): (16.24%) | SAQ Question 1-6: Moderately limited, patients (%) (6 months after treatment): (12.07%) | SAQ Question 1-6: Not limited, patients (%) (6 months after treatment): (34.35%) | SAQ Question 1-6: Other reasons, patients (%) (6 months after treatment): (1.11%) | SAQ Question 1-6: Severely limited, patients (%) (6 months after treatment): (3.19%) | SAQ Question 1-6: Slightly limited, patients (%) (6 months after treatment): (33.03%) | SAQ Question 1-7: Mildly limited, patients (%) (6 months after treatment): (21.45%) | SAQ Question 1-7: Moderately limited, patients (%) (6 months after treatment): (12.58%) | SAQ Question 1-7: Not limited, patients (%) (6 months after treatment): (14.47%) | SAQ Question 1-7: Other reasons, patients (%) (6 months after treatment): (3.70%) | SAQ Question 1-7: Severely limited, patients (%) (6 months after treatment): (14.88%) | SAQ Question 1-7: Slightly limited, patients (%) (6 months after treatment): (32.91%) | SAQ Question 1-8: Mildly limited, patients (%) (6 months after treatment): (25.91%) | SAQ Question 1-8: Moderately limited, patients (%) (6 months after treatment): (16.01%) | SAQ Question 1-8: Not limited, patients (%) (6 months after treatment): (10.81%) | SAQ Question 1-8: Other reasons, patients (%) (6 months after treatment): (3.79%) | SAQ Question 1-8: Severely limited, patients (%) (6 months after treatment): (18.96%) | SAQ Question 1-8: Slightly limited, patients (%) (6 months after treatment): (24.51%) | 8th question: Mostly satisfied, patients (%) (6 months after treatment, second line of the scale): (1.58%) | 8th question: Dissatisfied, patients (%) (9 months after treatment): (0.28%) | 8th question: Highly satisfied, patients (%) (9 months after treatment): (23.18%) | 8th question: Mostly dissatisfied, patients (%) (9 months after treatment): (1.18%) | 8th question: Mostly satisfied, patients (%) (9 months after treatment): (58.78%) | 8th question: Partly satisfied, patients (%) (9 months after treatment): (16.59%) | 9th question: Few, patients (%) (9 months after treatment): (38.61%) | 9th question: Mild, patients (%) (9 months after treatment): (32.78%) | 9th question: Moderate, patients (%) (9 months after treatment): (7.01%) | 9th question: Severe, patients (%) (9 months after treatment): (0.35%) | 9th question: Uneffective, patients (%) (9 months after treatment): (21.25%) | 10th question: Dissatisfied, patients (%) (9 months after treatment): (18.81%) | 10th question: Highly satisfied, patients (%) (9 months after treatment): (6.18%) | 10th question: Mostly dissatisfied, patients (%) (9 months after treatment): (19.99%) | 10th question: Mostly satisfied, patients (%) (9 months after treatment): (29.22%) | 10th question: Partly satisfied, patients (%) (9 months after treatment): (25.82%) | 11th question: Continuously worried, patients (%) (9 months after treatment): (2.43%) | 11th question: No worried, patients (%) (9 months after treatment): (6.11%) | 11th question: Occasionally worried, patients (%) (9 months after treatment): (42.40%) | 11th question: Often worried, patients (%) (9 months after treatment): (11.73%) | 11th question: Seldom worried, patients (%) (9 months after treatment): (37.34%) | SAQ 4th question, 1-2 times per week: % of patients (9 months after treatment): (15.99%) | SAQ 4th question, 1-2 times per week: number of patients (9 months after treatment): 230 | SAQ 4th question, 1-3 times per week: % of patients (9 months after treatment): (3.41%) | SAQ 4th question, 1-3 times per week: number of patients (9 months after treatment): 49 | SAQ 4th question, <1 time per week: % of patients (9 months after treatment): (14.95%) | SAQ 4th question, <1 time per week: number of patients (9 months after treatment): 215 | SAQ 4th question, Not used: % of patients (9 months after treatment): (61.54%) | SAQ 4th question, Not used: number of patients (9 months after treatment): 885 | SAQ 4th question, ≧3 times per week: % of patients (9 months after treatment): (4.03%) | SAQ 4th question, ≧3 times per week: number of patients (9 months after treatment): 58 | SAQ 4th question, ≧4 times per day: % of patients (9 months after treatment): (0.07%) | SAQ 4th question, ≧4 times per day: number of patients (9 months after treatment): 1 | SAQ 5th question, 1-2 times per week: % of patients (9 months after treatment): (30.04%) | SAQ 5th question, 1-2 times per week: number of patients (9 months after treatment): 432 | SAQ 5th question, 1-3 times per day: % of patients (9 months after treatment): (6.68%) | SAQ 5th question, 1-3 times per day: number of patients (9 months after treatment): 96 | SAQ 5th question, <1 time per week: % of patients (9 months after treatment): (28.65%)
